Results on three molecules are retold here after patent US8986419B2, “Mixture for treating fertilizers” (SKW Stickstoffwerke Piesteritz GmbH, priority 2010, dated 2015).

A short description of series [1]: Laboratory test on the volatility of 3-methylpyrazole, storage in open crystallising dishes at room temperature. The series is classed as physicochemical. The conditions noted are these: open crystallising dish diameter 5 cm.
Series [2] can be described thus: Simulated open storage test of treated urea granules, TZ/3-MP content determined analytically. The series is classed as physicochemical. The settings on record: storage period 6 weeks, 9 kg in open-topped vessels, ambient temperature and humidity; listed as pure 3-methylpyrazole sprayed on. The protocol: The urea granules enclosed in the cement mixer according to Example 8 were stored in a quantity of 9 kg to simulate storage in a pile in open-topped cylindrical vessels (height 30 cm, diameter 30 cm) at ambient temperature and humidity. After a storage period of 2, 4 and 6 weeks average samples were taken and the nitrification inhibitor TZ/3-MP content was determined analytically.
Enclosed urea granules according to Example 9 were stored in the same way in parallel, and average samples taken from these were investigated analytically.

For series [3] the following is noted: aqueous formulation; cited from earlier work.

Values after ≈ are worked out from the molar mass of the structure shown. Values joined by “and” are separate entries in the source; they are usually repeats but may differ in a detail not shown here. Equal entries are not always repeated.

Regarding `Cc1cc[nH]n1` [Example 3-MP, 3-methylpyrazole], the loss in % in series [1] (storage time 1 day) is recorded as 12%; in series [1] (storage time 2 days) it was 26%; in series [1] (storage time 3 days), 40%; in series [1] (storage time 6 days) it was 87%; in series [1] (storage time 12 days), 100%. Besides, the “Active substance losses in relation to the starting value, MP (%)” value in series [2] is 89 ^1% and 89%.
With `c1nc[nH]n1` [TZ, 1,2,4-triazole], the loss in % in series [1] (storage time 1 day) turned out to be 0%; in series [1] (storage time 2 days), 0%; in series [1] (storage time 3 days), 1%; in series [1] (storage time 6 days), 2%; in series [1] (storage time 12 days) it was 2%.
The solubility is how much of the substance goes into solution per volume. Consider `N#CN=C(N)N` [dicyandiamide, Dicyandiamide], for which the solubility in series [3] was 32 mg/mL (≈ 381 mM).
